Test results taken from patent publication US7163952B2, “Azole compound and medicinal use thereof” (Japan Tobacco Inc., priority 2001, dated 2007).

Work on CC(C)N(Cc1cccc(-c2nnn[nH]2)c1)c1nc(-c2ccc(OCc3ccc(C4CCCCC4)cc3)cc2)cs1 [Example 80, N-(4-(4-(4-cyclohexylbenzyloxy)phenyl)-2-thiazolyl)-N-isopropyl-(3-(1H-tetrazol-5-yl)benzyl)amine] yielded a melting point of 221 to 222 °C. In the case of CC(C)N(Cc1cccc(C(=O)O)c1)c1nc(-c2ccc(OCc3ccc(C4CCCCC4)cc3)cc2)cs1 [Example 87, 3-((N-(4-(4-(4-cyclohexylbenzyloxy)phenyl)-2-thiazolyl)-N-isopropylamino)methyl)benzoic acid], the melting point is reported as 196 to 197 °C. Compound CC(C)N(Cc1ccccc1C(=O)O)c1nc(-c2ccc(OCc3ccc(C4CCCCC4)cc3)cc2)cs1 [Example 88, 2-((N-(4-(4-(4-cyclohexylbenzyloxy)phenyl)-2-thiazolyl)-N-isopropylamino)methyl)benzoic acid] has a melting point of 259 to 261 °C. With CN(c1ccc(C(=O)O)cc1)c1nc(-c2ccc(OCc3ccc(Cl)c(Cl)c3)cc2)cs1 [Example 89, 4-(N-(4-(4-(3,4-dichlorobenzyloxy)phenyl)-2-thiazolyl)-N-methylamino)benzoic acid] the melting point was 230 °C (dec.). Work on CC(C)(c1ccc(C(=O)O)cc1)c1nc(-c2ccc(OCc3ccc(Cl)c(Cl)c3)cc2)cs1 [Example 90, 4-(1-(4-(4-(3,4-dichlorobenzyloxy)phenyl)-2-thiazolyl)-1-methylethyl)benzoic acid] yielded a melting point of 170 to 172 °C. With O=C(O)c1ccc(C2(c3nc(-c4ccc(OCc5ccc(C6CCCCC6)cc5)cc4)cs3)CCCC2)cc1 [Example 91, 4-(1-(4-(4-(4-cyclohexylbenzyloxy)phenyl)-2-thiazolyl)cyclopentyl)benzoic acid] the melting point was 248 to 251 °C. In the case of CC(C)(c1ccc(C(=O)O)cc1)c1nc(-c2ccc(OCc3ccc(-c4ccccc4)cc3)cc2)cs1 [Example 92, 4-(1-(4-(4-(4-biphenylylmethoxy)phenyl)-2-thiazolyl)-1-methylethyl)benzoic acid], the melting point is reported as 230 °C (dec.). In the case of O=C(O)c1ccc(C2(c3nc(-c4ccc(OCc5ccc(Cl)c(Cl)c5)cc4)cs3)CCCCC2)cc1 [Example 93, 4-(1-(4-(4-(3,4-dichlorobenzyloxy)phenyl)-2-thiazolyl)cyclohexyl)benzoic acid], the melting point is reported as 168 to 171 °C. With O=C(O)c1ccc(Nc2nc(-c3ccc(OCc4ccc(Cl)c(Cl)c4)cc3)cs2)cc1 [Example 94, 4-(4-(4-(3,4-dichlorobenzyloxy)phenyl)-2-thiazolylamino)benzoic acid] the melting point was 230 °C (dec.). In the case of O=C(O)c1ccc(Nc2nc(-c3ccc(OCc4ccc(-c5ccccc5)cc4)cc3)cs2)cc1 [Example 95, 4-(4-(4-(4-biphenylylmethoxy)phenyl)-2-thiazolylamino)benzoic acid], the melting point is reported as 230 °C (dec.). For CC(C)N(c1ccc(C(=O)O)cc1)c1nc(-c2ccc(OCc3ccc(Cl)c(Cl)c3)cc2)cs1 [Example 96, 4-(N-(4-(4-(3,4-dichlorobenzyloxy)phenyl)-2-thiazolyl)-N-isopropylamino)benzoic acid], the melting point was 236 to 238 °C. For CN(C)CCN(c1ccc(C(=O)O)cc1)c1nc(-c2ccc(OCc3ccc(Cl)c(Cl)c3)cc2)cs1 [Example 97, 4-(N-(4-(4-(3,4-dichlorobenzyloxy)phenyl)-2-thiazolyl)-N-(2-dimethylaminoethyl)amino)benzoic acid], the melting point was 230 °C (dec.). For O=C(O)c1ccc(N(CCN2CCCCC2)c2nc(-c3ccc(OCc4ccc(Cl)c(Cl)c4)cc3)cs2)cc1 [Example 98, 4-(N-(4-(4-(3,4-dichlorobenzyloxy)phenyl)-2-thiazolyl)-N-(2-piperidinoethyl)amino)benzoic acid], the melting point was 230 °C (dec.). Work on COCCN(c1ccc(C(=O)O)cc1)c1nc(-c2ccc(OCc3ccc(Cl)c(Cl)c3)cc2)cs1 [Example 99, 4-(N-(4-(4-(3,4-dichlorobenzyloxy)phenyl)-2-thiazolyl)-N-(2-methoxyethyl)amino)benzoic acid] yielded a melting point of 175 to 178 °C. For O=C(O)c1ccc(C2(c3nc(-c4ccc(OCc5ccc(C6CCCCC6)cc5)cc4)cs3)CCCCC2)cc1 [Example 100, 4-(1-(4-(4-(4-cyclohexylbenzyloxy)phenyl)-2-thiazolyl)cyclohexyl)benzoic acid], the melting point was 222 to 224 °C. With O=C(O)c1ccc(C2(c3nc(-c4ccc(OCc5ccc(C6CCCCC6)cc5)cc4)cs3)CCOCC2)cc1 [Example 101, 4-(4-(4-(4-(4-cyclohexylbenzyloxy)phenyl)-2-thiazolyl)tetrahydropyran-4-yl)benzoic acid] the melting point was 230 °C (dec.). CC(C)N(Cc1ccc(C(=O)O)cc1)c1nc(-c2ccc(NS(=O)(=O)c3ccc(C(C)(C)C)cc3)cc2)cs1 [Example 104, 4-((N-(4-(4-(4-tert-butylbenzenesulfonylamino)phenyl)-2-thiazolyl)-N-isopropylamino)methyl)benzoic acid] showed a melting point of 178 to 180 °C. Work on CC(C)N(Cc1ccc(C(=O)O)cc1)c1nc(-c2ccc(NS(=O)(=O)c3ccc(Cl)c(Cl)c3)cc2)cs1 [Example 105, 4-((N-(4-(4-(3,4-dichlorobenzenesulfonylamino)phenyl)-2-thiazolyl)-N-isopropylamino)methyl)benzoic acid] yielded a melting point of 193 to 195 °C. Compound CC(C)N(Cc1ccc(C(=O)O)cc1)c1nc(-c2ccc(NS(=O)(=O)c3ccc(C(F)(F)F)cc3)cc2)cs1 [Example 106, 4-((N-isopropyl-N-(4-(4-(4-trifluoromethylbenzenesulfonylamino)phenyl)-2-thiazolyl)amino)methyl)benzoic acid] has a melting point of 132 to 134 °C. CC(C)N(Cc1ccc(C(=O)O)cc1)c1nc(-c2ccc(N(Cc3ccccc3)Cc3ccccc3)cc2)cs1 [Example 109, 4-((N-(4-(4-dibenzylaminophenyl)-2-thiazolyl)-N-isopropylamino)methyl)benzoic acid] gave a melting point of 144 to 146 °C. For O=C(O)c1ccc(CN(CC2CCCCC2)c2nc(-c3ccc(N(Cc4ccc(Cl)c(Cl)c4)Cc4ccc(Cl)c(Cl)c4)cc3)cs2)cc1 [Example 117, 4-((N-(4-(4-(bis(3,4-dichlorobenzyl)amino)phenyl)-2-thiazolyl)-N-cyclohexylmethylamino)methyl)benzoic acid], the melting point was 120 °C (dec.). With CN(Cc1ccc(Cl)c(Cl)c1)c1ccc(-c2csc(N(Cc3ccc(C(=O)O)cc3)CC3CCCCC3)n2)cc1 [Example 118, 4-((N-cyclohexylmethyl-N-(4-(4-(N-(3,4-dichlorobenzyl)-N-methylamino)phenyl)-2-thiazolyl)amino)methyl)benzoic acid] the melting point was 125 to 127 °C. C=CCN(Cc1ccc(C2CCCCC2)cc1)c1ccc(-c2csc(N(C)Cc3ccc(C(=O)O)cc3)n2)cc1 [Example 119, 4-((N-(4-(4-(N-allyl-N-(4-cyclohexylbenzyl)amino)phenyl)-2-thiazolyl)-N-methylamino)methyl)benzoic acid] gave a melting point of 139 to 141 °C. For CN(Cc1ccc(C(=O)[O-])cc1)c1nc(-c2ccc(OCc3ccc(C4CCCCC4)cc3)cc2)cs1.[Na+] [Example 120, sodium 4-((N-(4-(4-(4-cyclohexylbenzyloxy)phenyl)-2-thiazolyl)-N-methylamino)methyl)benzoate], the melting point was 250 °C (dec.). For CN(c1ccc(C(=O)O)cc1)c1nc(-c2ccc(NCc3ccc(Cl)c(Cl)c3)cc2)cs1 [Example 128, 4-(N-(4-(4-(3,4-dichlorobenzylamino)phenyl)-2-thiazolyl)-N-methylamino)benzoic acid], the melting point was 223 to 225 °C. Work on O=C(O)c1ccc(N(CC2CCCCC2)c2nc(-c3ccc(NCc4ccc(Cl)c(Cl)c4)cc3)cs2)cc1 [Example 129, 4-(N-cyclohexylmethyl-N-(4-(4-(3,4-dichlorobenzylamino)phenyl)-2-thiazolyl)amino)benzoic acid] yielded a melting point of 187 to 189 °C. In the case of CC(C)c1ccc(CNc2ccc(-c3csc(N(CC4CCCCC4)c4ccc(C(=O)O)cc4)n3)cc2)cc1 [Example 130, 4-(N-cyclohexylmethyl-N-(4-(4-(4-isopropylbenzylamino)phenyl)-2-thiazolyl)amino)benzoic acid], the melting point is reported as 200 to 202 °C. CC(C)Cc1ccc(CNc2ccc(-c3csc(N(CC4CCCCC4)c4ccc(C(=O)O)cc4)n3)cc2)cc1 [Example 131, 4-(N-cyclohexylmethyl-N-(4-(4-(4-isobutylbenzylamino)phenyl)-2-thiazolyl)amino)benzoic acid] gave a melting point of 167 to 169 °C. With CN(Cc1ccc(C2CCCCC2)cc1)c1ccc(-c2csc(N(C)c3ccc(C(=O)O)cc3)n2)cc1 [Example 132, 4-(N-(4-(4-(N-(4-cyclohexylbenzyl)-N-methylamino)phenyl)-2-thiazolyl)-N-methylamino)benzoic acid] the melting point was 185 to 189 °C. For CN(c1ccc(C(=O)O)cc1)c1nc(-c2ccc(NCc3ccc(C(F)(F)F)cc3)cc2)cs1 [Example 133, 4-(N-methyl-N-(4-(4-(4-trifluoromethylbenzylamino)phenyl)-2-thiazolyl)amino)benzoic acid], the melting point was 230 °C (dec.). In the case of O=C(O)c1ccc(N(CC2CCCCC2)c2nc(-c3ccc(NCc4ccc(C(F)(F)F)cc4)cc3)cs2)cc1 [Example 134, 4-(N-cyclohexylmethyl-N-(4-(4-(4-trifluoromethylbenzylamino)phenyl)-2-thiazolyl)amino)benzoic acid], the melting point is reported as 199 to 203 °C. CN(Cc1ccc(C(F)(F)F)cc1)c1ccc(-c2csc(N(C)c3ccc(C(=O)O)cc3)n2)cc1 [Example 137, 4-(N-methyl-N-(4-(4-(N-methyl-N-(4-trifluoromethylbenzyl)amino)phenyl)-2-thiazolyl)amino)benzoic acid] showed a melting point of 218 to 220 °C. With O=C(O)c1ccc(Nc2nc(-c3cccc(OCc4ccc(C5CCCCC5)cc4)c3)cs2)cc1 [Example 138, 4-(4-(3-(4-cyclohexylbenzyloxy)phenyl)-2-thiazolylamino)benzoic acid] the melting point was 235 to 236 °C. For CN(c1ccc(C(=O)O)cc1)c1nc(-c2cccc(OCc3ccc(C4CCCCC4)cc3)c2)cs1 [Example 139, 4-(N-(4-(3-(4-cyclohexylbenzyloxy)phenyl)-2-thiazolyl)-N-methylamino)benzoic acid], the melting point was 250 °C (dec.). CCN(c1ccc(C(=O)O)cc1)c1nc(-c2cccc(OCc3ccc(C4CCCCC4)cc3)c2)cs1 [Example 140, 4-(N-(4-(3-(4-cyclohexylbenzyloxy)phenyl)-2-thiazolyl)-N-ethylamino)benzoic acid] showed a melting point of 179 to 180 °C.
